Assay results published in patent US20240336595A1, “BIFUNCTIONAL COMPOUNDS FOR DEGRADING BTK WITH DIMINISHED IMID ACTIVITY” (NURIX THERAPEUTICS, INC., priority 2021, published 2024).
Entries after “also recorded” stand apart in the source; their conditions may differ.

Experiments:
Aiolos = assay: IMiD activity: Aiolos degradation in PBMCs by flow cytometry; type: cell-based; conditions: human PBMCs, 24 hours
Description: In addition, Compounds 1-24 were assayed for IMiD activity. Frozen human peripheral blood mononuclear cells (PBMCs) were thawed and treated with DMSO or compound for 24 hours and then fixed and permeabilized using a Foxp3/Transcription Factor Fixation/Permeabilization Kit (eBioscience, 00-5523). Cells were stained with fluorophore-conjugated antibodies against CD20 (Biolegend 302330), CD3 (BD Pharmingen 552127), and Aiolos (Biolegend 371106). An additional set of DMSO-treated PBMCs was stained for CD20, CD3, and an AlexaFluor 647-conjugated mouse IgG1 isotype control antibody (Biolegend 400136). Stained cells were run on an Attune NxT Acoustic Focusing Flow Cytometer (Thermo-Fisher A29004), and data was analyzed using FlowJo (v10.5.3) and GraphPad Prism (v7.00) software. Single lymphocytes were gated for B cells (CD20+CD3-) and T cells (CD3+CD20-), and the geometric mean fluorescence intensity (MFI) of Aiolos was calculated for each population. The MFI of the isotype control was calculated for each population and used to quantify background staining. Percent Aiolos degradation was calculated for each compound-treated sample using the following equation: […]
DC50 is the compound concentration degrading 50% of Aiolos. Dmax is the maximum percent Aiolos degradation in the assay.

[1] = system: Experimental autoimmune encephalomyelitis (EAE); assay: Experimental autoimmune encephalomyelitis (EAE) model; type: in vivo, C57BL/6 mice
Description: EAE was induced in C57BL/6 mice by immunization with an emulsion of MOG1-125 in complete Freund's adjuvant (CFA), followed by administration of pertussis toxin in PBS, first on the day of immunization (Day 0) and then again the following day (Day 1).
Dosing of all mice started on Day −1 and continued through Day 22. Fingolimod (FTY720, Gilenya) is the a commonly used positive control in this model.
Statistical significance was determined between vehicle control and treated groups based on the end clinical scores using Wilcoxon's non-parametric test.
Statistical analysis: Demyelination (anti-MBP) with Wilcoxon's non-parametric test; inflammatory foci or apoptosis with two-tailed Student's t-test.

MRL/lpr model = assay: MRL/lpr lupus model; type: in vivo, MRL/lpr mice
Description: Dexamethasone was used as positive control.
Statistical significance was determined between vehicle control and treated groups by ANOVA with Dunnett's post-hoc analysis.
Glomeruli size is a quantitative measure that correlates well with the histopathological grade and severity of nephritis in this model. Statistical significance was determined between vehicle control and treated groups by ANOVA with Dunnett's post-hoc analysis (glomerulus diameter) or with a Kruskal-Wallis test with Dunn's post-hoc analysis (summed scores). * p<0.05, ** p<0.01, *** p<0.001**** p<0.0001.

intracranial TMD8 tumors = assay: Intracranial TMD8 tumor model, tumor burden; type: in vivo, female CB.17 SCID mice; conditions: 90 mg/kg orally every day for twelve days, vs vehicle
Excerpt: TMD8 is a human activated B cell (ABC)-type diffuse large B cell lymphoma (DLBCL) cell line that is dependent on BTK signaling for survival (Davis, R. E., Ngo, V. N., Lenz, G., Tolar, P., Young, R. M., Romesser, P. B., Staudt, L. M. (2010). Chronic active B-cell-receptor signalling in diffuse large B-cell lymphoma. Nature, 463(7277), 88-92. doi: 10.1038/nature08638).
TMD8 cells were implanted into female CB.17 SCID mice by intracranial injection of 5E5 TMD8 cells. Treatment with compound 1 begun the following day. Mice were treated orally every day for twelve days with either vehicle or 90 mg/kg of Compound 1. Brains were then harvested, dissociated into single cell suspensions and BTK level in TMD8 cells was assessed by flow cytometry. TMD8 cells in dissociated brain tissue were identified by human-specific surface markers (CD20+HLA+) and total numbers of TMD8 cells per brain is reported in (A, tumor burden). Percent BTK remaining in TMD8 cells (B) was calculated according to the below formula: […]

BTK = BTK (Mus musculus, UniProt P35991); assay: BTK level in spleen B cells after NP-KLH immunization; type: in vivo, Mice; design: from tissue; host or cells: mouse spleen B cells (CD19+ TCRbeta-)
BTK, sequence (P35991 whole entry): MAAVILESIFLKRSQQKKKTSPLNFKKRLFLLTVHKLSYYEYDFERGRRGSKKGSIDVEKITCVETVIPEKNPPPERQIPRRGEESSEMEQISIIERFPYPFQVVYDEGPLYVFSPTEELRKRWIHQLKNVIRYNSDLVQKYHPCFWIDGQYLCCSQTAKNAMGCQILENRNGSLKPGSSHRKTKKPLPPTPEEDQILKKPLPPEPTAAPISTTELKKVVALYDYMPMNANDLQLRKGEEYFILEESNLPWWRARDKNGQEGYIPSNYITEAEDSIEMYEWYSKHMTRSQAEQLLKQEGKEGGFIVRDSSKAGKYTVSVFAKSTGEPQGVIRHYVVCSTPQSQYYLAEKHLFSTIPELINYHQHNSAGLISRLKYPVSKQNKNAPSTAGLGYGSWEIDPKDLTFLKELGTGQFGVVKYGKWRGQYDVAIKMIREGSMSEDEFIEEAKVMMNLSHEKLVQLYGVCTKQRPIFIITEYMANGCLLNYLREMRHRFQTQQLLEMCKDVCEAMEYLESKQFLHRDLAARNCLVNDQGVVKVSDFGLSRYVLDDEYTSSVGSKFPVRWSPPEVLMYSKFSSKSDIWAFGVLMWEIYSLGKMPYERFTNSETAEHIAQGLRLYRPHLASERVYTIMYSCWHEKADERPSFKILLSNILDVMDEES
Description: Mice were immunized by intraperitoneal injection of 200 μL of immunogen containing 100 μg NP-32-KLH (Biosearch Technologies, Cat. N-5060-25,Lot. 156285-01) and 1% Alum (Alhydrogel, 2%, Invivogen Cat. Vac-alu-250, Batch 0001715532, Exp. July 2022), prepared in phosphate buffered saline. Group 1 mice were not immunized and used as control. Mice in Group 2 to 5 were dosed orally once a day from Day 1 to Day 7 with compounds or vehicle for six additional days and then sacrificed the following day. Splenocytes and bone marrow were harvested 24 hours following the final dosing of compound on Day 7. Spleens harvested at the end of the study were dissociated, and red blood cells were lysed with ammonium-chloride-potassium (ACK) lysis buffer. 1 million cells per tissue were stained for each flow cytometry panel.
Cells were permeabilized and stained for lineage markers and intracellular BTK. B cells were gated on CD19+ TCRbeta−, and T cells were gated on CD19− and TCRbeta+.

[2] = H&E-stained kidney tissue, end of study

- DC50 (Aiolos; compound concentration degrading 50% of Aiolos): 631 nM
- BTK degradation in spleens (BTK; NP-KLH immunized mice, oral once a day): robust BTK degradation
- BTK levels (percent BTK remaining in B cells) (BTK; spleen, 24 hours after the final dose, normalized to naive group): 13.4 % of baseline
Compound: CN1CCN([C@@H]2CCCN(c3cnc(C(N)=O)c(Nc4ccc(C5CCN(CC6CCN(c7ccc(C(=O)N[C@H]8CCC(=O)NC8=O)nc7)CC6)CC5)cc4)n3)C2)C1=O [Compound 1]
- Dmax (Aiolos; maximum percent Aiolos degradation in the assay): 18.7%
- mean clinical score ([1]; EAE, 30 mg/kg, compared with ibrutinib 30 mg/kg): superior to Ibrutinib; also recorded: lower mean clinical score than ibrutinib
- EAE clinical scores ([1]; prophylactic daily oral treatment, Day −1 through Day 22, dose dependence): dose-dependent reduction of EAE clinical scores
- protein urine score, statistically significant reduction vs vehicle (MRL/lpr model; 30 mg/kg, Urine Protein Score AUC): statistically significant reduction
- anti-ds DNA autoantibody in end of study serum (MRL/lpr model; 30 mg/kg, vs vehicle): statistically significant reduction
- overall summed histology score (MRL/lpr model; [2]): more effective than Ibrutinib
- size of the glomeruli (MRL/lpr model; [2]): more effective than Ibrutinib
- kidney disease (MRL/lpr model; MRL/lpr model): significantly ameliorated kidney disease
- urine protein score (MRL/lpr model; daily oral, starting at 10 weeks of age, dose dependence): dose-dependent reduction of urine protein score
- tumor burden (total TMD8 cells per brain) (intracranial TMD8 tumors): reduced tumor burden
- tumor burden (total TMD8 cells per brain) (intracranial TMD8 tumors; listed as compound 1): significantly reduced TMD8 tumor cells
